The text below walks through data of US5723462A, “Certain fused pyrrolecarboxamides a new class of GABA brain receptor ligands” (Neurogen Corporation, priority 1996, dated 1998).

The structures appear in SMILES notation.

For one test, the target named is GABAa receptor. Kind of test: GABAa receptor binding assay ([3H]-Flumazenil, RO15-1788 displacement, rat cortical tissue). To be noted: 0.5 nM 3H-RO15-1788, 30 min at 4° C. The method, then:
The pharmaceutical utility of compounds of this invention are indicated by the following assay for GABAa receptor binding activity.
Assays are carried out as described in Thomas and Tallman (J. Bio. Chem. 156: 9838-9842, J. Neurosci. 3: 433-440, 1983). Rat cortical tissue is dissected and homogenized in 25 volumes (w/v) of 0.05M Tris HCl buffer (pH 7.4 at 4° C.). The tissue homogenate is centrifuged in the cold (4° ) at 20,000×g for 20'. The supernatant is decanted and the pellet is rehomogenized in the same volume of buffer and again centrifuged at 20,000×g. The supernatant is decanted and the pellet is frozen at -20° C. overnight. The pellet is then thawed and rehomogenized in 25 volume (original wt/vol) of buffer and the procedure is carried out twice. The pellet is finally resuspended in 50 volumes (w/vol of 0.05M Tris HCl buffer (pH 7.4 at […]).
Incubations contain […] of tissue homogenate, […] of radioligand 0.5 nM (^3 H-RO15-1788 [^3 H-Flumazenil] specific activity 80 Ci/mmol), drug or blocker and buffer to a total volume of […]. Incubations are carried for 30 min at 4° C. then are rapidly filtered through GFB filters to separate free and bound ligand. Filters are washed twice with fresh 0.05M Tris HCl buffer (pH 7.4 at 4° C.) and counted in a liquid scintillation counter. 1.0 mM diazepam is added to some tubes to determine nonspecific binding. Data are collected in triplicate determinations, averaged and % inhibition of total specific binding is calculated. Total Specific Binding=Total-Nonspecific. In some cases, the amounts of unlabeled drugs is varied and total displacement curves of binding are carried out. Data are converted to IC50 or Ki.
In the case of `COc1ccc(NC(=O)c2c[nH]c3c2C(=O)CCC3)cn1` [Compound 1], the inhibition constant Ki worked out at 11 nM.
`O=C(Nc1ccsc1)c1c[nH]c2c1C(=O)CCC2` [Compound 2, N-(3-thienyl)-4-oxo-4,5,6,7-tetrahydro-1H-indole-3-carboxamide]: the Ki came to 3 nM.
`COc1ccc2ccc(NC(=O)c3c[nH]c4c3C(=O)CCC4)nc2n1` [Compound 3, N-(2-methoxy-1,8-napthyridin-7-yl)-4-oxo-4,5,6,7-tetrahydro-1H-indole-3-carboxamide] came in with a Ki of 66 nM.
On to `O=C(Nc1ccccn1)c1c[nH]c2c1C(=O)CCC2` [Compound 4, N-(2-Pyridyl)-4-oxo-4,5,6,7-tetrahydro-1H-indole-3-carboxamide], for which the Ki is 3 nM.
Still for that read-out and setting: the result for `O=C(Nc1nccs1)c1c[nH]c2c1C(=O)CCCC2` [Compound 5, N-(2-Thiazolyl)-4-oxo-1,4,5,6,7,8-hexahydro-cyclohepta[b]pyrrole-3-carboxamide] reads 2 nM; that for `O=C(Nc1cccnc1)c1c[nH]c2c1C(=O)CCCC2` [Compound 6, N-(3-Pyridyl)-4-oxo-1,4,5,6,7,8-hexahydro-cyclohepta[b]pyrrole-3-carboxamide], 25 nM; that for `CC1(C)CCc2[nH]cc(C(=O)Nc3ccsc3)c2C1=O` [Compound 7, N-(3-Thienyl)-4-oxo-5,5-dimethyl-4,5,6,7-tetrahydro-1H-indole-3-carboxamide], 15 nM.
Same read-out and setting: the result for `CC1(C)CCc2[nH]cc(C(=O)Nc3nccs3)c2C1=O` [Compound 8, N-(2-Thiazolyl)-4-oxo-5,5-dimethyl-4,5,6,7-tetrahydro-1H-indole-3-carboxamide] reads 2 nM.
In turn, `Cc1cnc(NC(=O)c2c[nH]c3c2C(=O)CCC3)s1` [Compound 9, N-(5-Methyl-2-thiazolyl)-4-oxo-4,5,6,7-tetrahydro-1H-indole-3-carboxamide] showed a Ki of 9 nM.
In turn, `O=C(Nc1ccc2ccc(Cl)nc2n1)c1c[nH]c2c1C(=O)CCC2` [Compound 10, N-(2-Chloro-1,8-napthyridin-7-yl)-4-oxo-4,5,6,7-tetrahydro-1H-indole-3-carboxamide] came in with a Ki of 83 nM.
On the same count and under the same terms, with `Cc1cnc2nc(NC(=O)c3c[nH]c4c3C(=O)CCC4)ccc2c1` [Compound 11] the figure was 3 nM; with `O=C(Nc1ccc2ccccc2n1)c1c[nH]c2c1C(=O)CCC2` [Compound 12, N-(2-Quinolinyl)-4-oxo-4,5,6,7-tetrahydro-1H-indole-3-carboxamide], 50 nM.
In turn, `O=C(Nc1ccc2nccnc2c1)c1c[nH]c2c1C(=O)CCC2` [Compound 13, N-(6-Quinoxalinyl)-4-oxo-4,5,6,7-tetrahydro-1H-indole-3-carboxamide] returned an inhibition constant (Ki) of 64 nM.

The next test relates to GABA receptor.
Assay: not given
To be noted: Tallman et al., 1978; cited from earlier work.
Turning to `CN1CCc2cc3c(cc2C1C1OC(=O)c2c1ccc1c2OCO1)OCO3` (single isomer, unassigned; (+)) [(+) bicuculline], the “blockade of the enhancement of benzodiazepine binding by GABA agonists” value is “blocked”.
`CN1CCc2cc3c(cc2C1C1OC(=O)c2c1ccc1c2OCO1)OCO3` (single isomer, unassigned; (-)) [(-) bicuculline]: the “blockade of the enhancement of benzodiazepine binding by GABA agonists” value is reported as “much less active”.
